Assay results: patent US20030144234A1, “Methods for the treatment of chronic pain and compositions therefor” (priority 2001, published 2003)
Values belong to the compound of their own block, whether it stands above or below them. Starred links: 1 amine or outer side, 2 acyl side, 3 side chain; linkers in the order of their positions; H or OH if unused. Non-standard residues stand in square brackets, D forms with d. Residues, ends and D or L forms follow the SMILES beside them. *: point of attachment. hPhe = N[C@@H](CCc1ccccc1)C(=O)O; Morpholide = C1CN(*)CCO1; CO = O=C([*:1])[*:2]; CH2F = FC*

Legend:
[1] = tested on: CCI model of chronic neuropathic pain; assay: Established mechanical hyperalgesia in the CCI model of chronic neuropathic pain, single oral dose (paw withdrawal threshold); assay type: in vivo, Wistar rats; details: for % Reversal of Predose Hyperalgesia: CCI model day 14
From the text: In the Chronic Constriction Injury (CCl) model (Bennett, G. J. and Xie, Y. K. Pain (1988) 33: 87-107) rats are anaesthetised and a small incision is made mid-way up one thigh (usually the left) to expose the sciatic nerve. The nerve is cleared of surrounding connective tissue and four ligatures of 4/0 chromic gut are tied loosely around the nerve with approximately 1 mm between each, so that the ligatures just barely constrict the surface of the nerve. The wound is closed with sutures and clips as described above. In sham animals the sciatic nerve is exposed but not ligated and the wound closed as in nonsham animals. In all chronic pain models (inflammatory and neuropathic) mechanical hyperalgesia is assessed by measuring paw withdrawal thresholds of both hindpaws to an increasing pressure stimulus using an Analgesymeter (Ugo-Basile, Milan). Mechanical allodynia is assessed by measuring withdrawal thresholds to non-noxious mechanical stimuli applied with von Frey hairs to the plantar surface of both hindpaws. Thermal hyperalgesia is assessed by measuring withdrawal latencies to a noxious thermal stimulus applied to the underside of each hindpaw. With all models, mechanical hyperalgesia and allodynia and thermal hyperalgesia develop within 1-3 days following surgery and persist for at least 50 days. For the assays described herein, drugs may be applied before and after surgery to assess their effect on the development of hyperalgesia, particularly approximately 14 days following surgery, to determine their ability to reverse established hyperalgesia. The percentage reversal of hyperalgesia is calculated as follows: [formula] In the experiments disclosed herein, Wistar rats (male) are employed in the pain models described above. Rats weigh approximately 120-140 grams at the time of surgery. All surgery is performed under enflurane/O2 inhalation anaesthesia. In all cases the wound is closed after the procedure and the animal allowed to recover. In all pain models employed, after a few days in all but the sham operated animals, a marked mechanical and thermal hyperalgesia and allodynia develops in which there is a lowering of pain threshold and an enhanced reflex withdrawal response of the hind-paw to touch, pressure or thermal stimuli. […] In the majority of animals the toes of the affected hind paw are held together and the foot turned slightly to one side; in some rats the toes are also curled under. The gait of the ligated rats varies, but limping is uncommon. […] The rats tend to be very sensitive to touch and may vocalise. Otherwise the general health an condition of the rats is good. Rats are subjected to the surgical procedures according to the CCl chronic pain model described above. Paw withdrawal thresholds are measured prior to surgery, 14 days later when hyperalgesia is established and then at 1, 3 and 6 hours following a single oral gavage dose of compound B. Results are provided in Table 2, below. Each time point represents data from 6 animals per group. Vehicle control: PEG/methyl cellulose (0.5%)+Tween 80 (0.25%)(20:80), 1 ml p.o.

[2] = tested on: CCI model of chronic neuropathic pain; assay: Mechanical hyperalgesia in the CCI model, twice daily oral dosing throughout development of hyperalgesia; assay type: in vivo, Wistar rats
From the text: In the Chronic Constriction Injury (CCl) model (Bennett, G. J. and Xie, Y. K. Pain (1988) 33: 87-107) rats are anaesthetised and a small incision is made mid-way up one thigh (usually the left) to expose the sciatic nerve. The nerve is cleared of surrounding connective tissue and four ligatures of 4/0 chromic gut are tied loosely around the nerve with approximately 1 mm between each, so that the ligatures just barely constrict the surface of the nerve. The wound is closed with sutures and clips as described above. In sham animals the sciatic nerve is exposed but not ligated and the wound closed as in nonsham animals. In all chronic pain models (inflammatory and neuropathic) mechanical hyperalgesia is assessed by measuring paw withdrawal thresholds of both hindpaws to an increasing pressure stimulus using an Analgesymeter (Ugo-Basile, Milan). Mechanical allodynia is assessed by measuring withdrawal thresholds to non-noxious mechanical stimuli applied with von Frey hairs to the plantar surface of both hindpaws. Thermal hyperalgesia is assessed by measuring withdrawal latencies to a noxious thermal stimulus applied to the underside of each hindpaw. With all models, mechanical hyperalgesia and allodynia and thermal hyperalgesia develop within 1-3 days following surgery and persist for at least 50 days. For the assays described herein, drugs may be applied before and after surgery to assess their effect on the development of hyperalgesia, particularly approximately 14 days following surgery, to determine their ability to reverse established hyperalgesia. In the experiments disclosed herein, Wistar rats (male) are employed in the pain models described above. Rats weigh approximately 120-140 grams at the time of surgery. All surgery is performed under enflurane/O2 inhalation anaesthesia. In all cases the wound is closed after the procedure and the animal allowed to recover. In all pain models employed, after a few days in all but the sham operated animals, a marked mechanical and thermal hyperalgesia and allodynia develops in which there is a lowering of pain threshold and an enhanced reflex withdrawal response of the hind-paw to touch, pressure or thermal stimuli. […] In the majority of animals the toes of the affected hind paw are held together and the foot turned slightly to one side; in some rats the toes are also curled under. The gait of the ligated rats varies, but limping is uncommon. […] The rats tend to be very sensitive to touch and may vocalise. Otherwise the general health an condition of the rats is good. Data disclosed herein indicate that compound B can reverse the mechanical hyperalgesia induced in the CCl model of neuropathic pain in a dose dependent manner with a D50 in the range 30-100 mg/kg, with up to 70% reversal at 100 mg/kg at 1 hour post dosing. […] In the twice daily study, paw withdrawal thresholds were measured prior to surgery and then daily 3 hours following the second oral dosing with compound B. The last dose was given on day 13. Each time point in Table 3 represents data from 6 animals per group. Vehicle control: PEG/methyl cellulose (0.5%)+Tween 80 (0.25%)(20:80), 1 ml p.o.

[3] = tested on: Seltzer model of chronic neuropathic pain; assay: Established mechanical hyperalgesia in the Seltzer model of chronic neuropathic pain, single oral dose; assay type: in vivo, Wistar rats; parameters: effect on established mechanical hyperalgesia: unit not given here
[4] = tested on: FCA-induced model of chronic inflammatory pain; assay: Mechanical hyperalgesia in the FCA-induced model of chronic inflammatory pain; assay type: in vivo, rats; details: 100 mg/kg p.o., 24 hours after FCA induction, data not shown
Protocol: The Complete Freund's Adjuvant-induced mechanical hyperalgesia may be used as a model of chronic inflammatory pain (Stein, C. et al. Pharmacol. Biochem. Behav. (1988) 31:445-451). In this model, typically a male Sprague-Dawley orWistar rat (200-250 g) receives an intraplantar injection of 25 μl complete Freund's adjuvant into one hind paw. A marked inflammation occurs in this hind paw. Drugs are generally administered for evaluation of efficacy, 24 hours after the inflammatory insult, when mechanical hyperalgesia is considered fully established. In all chronic pain models (inflammatory and neuropathic) mechanical hyperalgesia is assessed by measuring paw withdrawal thresholds of both hindpaws to an increasing pressure stimulus using an Analgesymeter (Ugo-Basile, Milan). Mechanical allodynia is assessed by measuring withdrawal thresholds to non-noxious mechanical stimuli applied with von Frey hairs to the plantar surface of both hindpaws. Thermal hyperalgesia is assessed by measuring withdrawal latencies to a noxious thermal stimulus applied to the underside of each hindpaw. With all models, mechanical hyperalgesia and allodynia and thermal hyperalgesia develop within 1-3 days following surgery and persist for at least 50 days. […] The percentage reversal of hyperalgesia is calculated as follows: [formula] […]

cathepsin S [5] = target: T1, cathepsin S (Homo sapiens, UniProt P25774); details: per U.S. Pat. No. 4,518,528; cited from earlier work
T1 sequence (P25774 115-331): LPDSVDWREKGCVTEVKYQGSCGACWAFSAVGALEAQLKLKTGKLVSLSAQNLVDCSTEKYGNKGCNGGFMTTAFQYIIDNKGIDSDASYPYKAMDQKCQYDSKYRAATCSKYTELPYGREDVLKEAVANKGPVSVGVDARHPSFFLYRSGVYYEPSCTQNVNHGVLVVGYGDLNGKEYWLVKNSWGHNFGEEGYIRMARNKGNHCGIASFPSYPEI

cathepsin S [6] = target: T1, cathepsin S; assay: Cathepsin S inhibitory activity (stated in words); assay type: biochemical
cathepsin K = target: T2, cathepsin K (Homo sapiens, UniProt P43235); assay: Cathepsin K inhibitory activity (stated in words); assay type: biochemical
T2 sequence (P43235 115-329): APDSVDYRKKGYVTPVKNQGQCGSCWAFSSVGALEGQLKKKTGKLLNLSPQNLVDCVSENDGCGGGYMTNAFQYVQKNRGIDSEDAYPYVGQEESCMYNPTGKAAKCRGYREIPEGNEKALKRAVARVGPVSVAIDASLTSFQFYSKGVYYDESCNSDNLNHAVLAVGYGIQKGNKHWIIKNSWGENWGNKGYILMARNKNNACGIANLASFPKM

SMILES: O=C(CF)[C@H](CCc1ccccc1)NC(=O)[C@H](Cc1ccccc1)NC(=O)N1CCOCC1 [Compound B, 3-[(4-morpholinylcarbonyl)-phenylalanylamido]-1-fluoro-5-phenyl-2-pentanone] ({Morpholide-CO}-Phe-[hPhe]-CH2F)
- % Reversal of Predose Hyperalgesia ([1]; 10 mg/kg single oral dose, 1 hr post dose): 26.16%
- % Reversal of Predose Hyperalgesia ([1]; 10 mg/kg single oral dose, 3 hrs post dose): 38.19%
- % Reversal of Predose Hyperalgesia ([1]; 10 mg/kg single oral dose, 6 hrs post dose): 18.29%
- % Reversal of Predose Hyperalgesia ([1]; 30 mg/kg single oral dose, 1 hr post dose): 40.97%
- % Reversal of Predose Hyperalgesia ([1]; 30 mg/kg single oral dose, 3 hrs post dose): 38.89%
- % Reversal of Predose Hyperalgesia ([1]; 30 mg/kg single oral dose, 6 hrs post dose): 13.89%
- % Reversal of Predose Hyperalgesia ([1]; 100 mg/kg single oral dose, 1 hr post dose): 76.49%
- % Reversal of Predose Hyperalgesia ([1]; 100 mg/kg single oral dose, 3 hrs post dose): 55.06%
- % Reversal of Predose Hyperalgesia ([1]; 100 mg/kg single oral dose, 6 hrs post dose): 29.76%
- reversal of mechanical hyperalgesia ([1]; CCI model, 100 mg/kg, 1 hour post dosing): up to 70%
- D50 for reversal of mechanical hyperalgesia ([1]; CCI model, single oral dose): 30 to 100 mg/kg
- Mean Paw pressure withdrawal threshold ([2]; 30 mg/kg orally twice daily, day 1 post surgery, 3 hours after second dose): 100.00 g
- Mean Paw pressure withdrawal threshold ([2]; 30 mg/kg orally twice daily, day 2 post surgery, 3 hours after second dose): 70.83 g
- Mean Paw pressure withdrawal threshold ([2]; 30 mg/kg orally twice daily, day 3 post surgery, 3 hours after second dose): 79.17 g
- Mean Paw pressure withdrawal threshold ([2]; 30 mg/kg orally twice daily, day 4 post surgery, 3 hours after second dose): 80.00 g
- Mean Paw pressure withdrawal threshold ([2]; 30 mg/kg orally twice daily, day 6 post surgery, 3 hours after second dose): 80.80 g
- Mean Paw pressure withdrawal threshold ([2]; 30 mg/kg orally twice daily, day 8 post surgery, 3 hours after second dose): 80.00 g
- Mean Paw pressure withdrawal threshold ([2]; 30 mg/kg orally twice daily, day 10 post surgery, 3 hours after second dose): 77.50 g
- Mean Paw pressure withdrawal threshold ([2]; 30 mg/kg orally twice daily, day 13 post surgery (last dose), 3 hours after second dose): 79.17 g
- reversing mechanical hyperalgesia (in words) ([2]; CCI model, 30 mg/kg orally, twice daily throughout development of hyperalgesia): acutely effective
- Mean Paw pressure withdrawal threshold ([2]; day 15 post surgery, after end of 30 mg/kg twice daily treatment (last dose day 13)): 60.83 g
- effect on established mechanical hyperalgesia ([3]; Cmpd B 30 mg/kg single oral dose, 1 hr): 33.47
- effect on established mechanical hyperalgesia ([3]; Cmpd B 30 mg/kg single oral dose, 3 hrs): 41.57
- effect on established mechanical hyperalgesia ([3]; Cmpd B 30 mg/kg single oral dose, 6 hrs): 11.97
- maximal reversal of mechanical hyperalgesia [4]: 46%
- inhibition of cathepsin S in vitro (in words) (cathepsin S [5]): known to inhibit

- cathepsin S inhibitory activity (in words) (cathepsin S [6]): mixed cathepsin S/K inhibitory activity
- cathepsin K inhibitory activity (in words) (cathepsin K): mixed cathepsin S/K inhibitory activity
SMILES: CC(C)(C)Cn1c(Cc2cccs2)cc2cnc(C#N)nc21 [Compound A, 7-(2,2-Dimethyl-propyl)-6-thiophen-2-ylmethyl-7.H.-pyrrolo[2,3-.d.]pyrimidine-2-carbonitrile]
- effect on established mechanical hyperalgesia ([3]; Cmpd A 3 mg/kg single oral dose, 1 hr): 1.32
- effect on established mechanical hyperalgesia ([3]; Cmpd A 3 mg/kg single oral dose, 3 hrs): 3.64
- effect on established mechanical hyperalgesia ([3]; Cmpd A 3 mg/kg single oral dose, 6 hrs): −1.06
- effect on established mechanical hyperalgesia ([3]; Cmpd A 10 mg/kg single oral dose, 1 hr): 8.63
- effect on established mechanical hyperalgesia ([3]; Cmpd A 10 mg/kg single oral dose, 3 hrs): 52.94
- effect on established mechanical hyperalgesia ([3]; Cmpd A 10 mg/kg single oral dose, 6 hrs): 17.63
- effect on established mechanical hyperalgesia ([3]; Cmpd A 30 mg/kg single oral dose, 1 hr): 31.15
- effect on established mechanical hyperalgesia ([3]; Cmpd A 30 mg/kg single oral dose, 3 hrs): 68.32
- effect on established mechanical hyperalgesia ([3]; Cmpd A 30 mg/kg single oral dose, 6 hrs): 23.05
- D50 for reversal of hyperalgesia ([3]; Seltzer model, single oral dose): 3 to 10 mg/kg
